One assay has as its target JAK2 (Homo sapiens (Human), UniProt O60674). Briefly: Inhibition of enzymatic JAK2 kinase activity (TR-FRET). It counts as biochemical. As to conditions: read-out: IC50 JAK. In outline: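 Enzyme preincubated with compound 30 min at RT, then Ulight-poly-GT substrate and ATP added for 60 min at RT. EDTA stop, Eu-antiphosphotyrosine antibody; TR-FRET ratio 665/615 nm (ex 340 nm), blank-corrected; % inhibition versus positive control.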
(In TR-FRET formats the signal depends on donor and acceptor labels being close together.)

In assay [1] the target is Syk (356-635 amino acids) catalytic domain (Homo sapiens (Human), UniProt P43405). Briefly: Inhibition of enzymatic Syk kinase activity (radiometric). The class given is biochemical. As to conditions: read-out: IC50 Syk. In outline: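 Human Syk (356-635) kinase domain (0.035–7.5 ng/reaction) preincubated with compound 30 minutes at room temperature, then reacted with pG4T substrate, 100 μM ATP (stock) and γ-32P-ATP for 10 minutes at 30° C. Reaction stopped with HCl/ATP, spotted on P81 paper, washed and counted by scintillation. Percent inhibition versus no-compound counts.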

SMILES strings stand for the structures. Structures can show the parent of a compound that is named as a salt. Some results are limits rather than exact numbers.

Sequence of JAK2 (O60674 808-1132): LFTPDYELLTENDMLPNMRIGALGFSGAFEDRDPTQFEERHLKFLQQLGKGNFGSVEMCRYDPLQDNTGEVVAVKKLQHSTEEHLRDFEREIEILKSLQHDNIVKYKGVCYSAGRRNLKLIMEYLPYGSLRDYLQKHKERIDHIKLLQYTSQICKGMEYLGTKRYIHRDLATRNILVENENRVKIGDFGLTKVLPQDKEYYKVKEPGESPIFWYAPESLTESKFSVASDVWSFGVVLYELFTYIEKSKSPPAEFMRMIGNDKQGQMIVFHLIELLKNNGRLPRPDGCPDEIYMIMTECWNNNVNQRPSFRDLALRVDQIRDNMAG

One may read the IC50 as the concentration needed to halve the response being measured. Consider `O=c1[nH]ncc2nc(N3CCCNCC3)nc(Nc3ccc(CN4CCNCC4)cc3)c12` [Example 59, 2-(1,4-diazepan-1-yl)-4-((4-(piperazin-1-ylmethyl)phenyl)amino)pyrimido[4,5-d]pyridazin-5(6H)-one dihydrochloride], for which the IC50 is over 100 nM on JAK2 and under 50 nM in assay [1].

Take `COc1cccc(-c2nc(Nc3ccc(CN4CCNCC4)cc3)c3c(=O)[nH]ncc3n2)c1` [Example 31, 2-(3-methoxyphenyl)-4-(4-(piperazin-1-ylmethyl)phenylamino)pyrimido[4,5-d]pyridazin-5(6H)-one hydrochloride]: the values for the IC50 (at JAK2; in assay [1]) were over 100 nM and under 50 nM, respectively.

As to `COCCN1CCN(c2ccc(Nc3nc(N4CCCCCC4)nc4cn[nH]c(=O)c34)cc2)CC1` [Example 255, 2-(azepan-1-yl)-4-((4-(4-(2-methoxyethyl)piperazin-1-yl)phenyl)amino) pyrimido[4,5-d]pyridazin-5(6H)-one], the IC50 was under 10 nM on JAK2 and under 50 nM in assay [1].

Turning to `NCCOc1ccc(Nc2nc(N3CCCCCC3)nc3cn[nH]c(=O)c23)cc1` [Example 199, 4-((4-(2-aminoethoxy)phenyl)amino)-2-(azepan-1-yl)pyrimido[4,5-d]pyridazin-5(6H)-one], the IC50 (on JAK2; in assay [1]) was under 10 nM throughout.

For the molecule `O=C(O)C1CC12CCN(c1ccc(Nc3nc(N4CCCCCC4)nc4cn[nH]c(=O)c34)cc1F)CC2` (stereo not drawn) [Example 135, 6-(4-((2-(azepan-1-yl)-5-oxo-5,6-dihydropyrimido[4,5-d]pyridazin-4-yl)amino)-2-fluorophenyl)-6-azaspiro[2.5]octane-1-carboxylic acid], the IC50 (at JAK2; in assay [1]) was under 10 nM each time.

Take `COc1ccccc1-c1nc(Nc2ccc(CN3CCNCC3)cc2)c2c(=O)[nH]ncc2n1` [Example 36, 2-(2-methoxyphenyl)-4-(4-(piperazin-1-ylmethyl)phenylamino)pyrimido[4,5-d]pyridazin-5(6H)-one hydrochloride]: the half-maximal inhibitory concentration (IC50) was under 100 nM at JAK2 and over 100 nM in assay [1].

Regarding `N#CCC1CCN(c2nc(Nc3ccc(CCO)cc3)c3c(=O)[nH]ncc3n2)CC1` [Example 323, 2-(1-(4-((4-(2-hydroxyethyl)phenyl)amino)-5-oxo-5,6-dihydropyrimido[4,5-d]pyridazin-2-yl)piperidin-4-yl) acetonitrile], the IC50 (on JAK2; in assay [1]) was under 50 nM in each case.

As for `COCCOc1ccc(Nc2nc(N3CCCCCC3)nc3cn[nH]c(=O)c23)cc1` [Example 324, 2-(azepan-1-yl)-4-((4-(2-methoxyethoxy)phenyl)amino)pyrimido[4,5-d]pyridazin-5(6H)-one], the IC50 (at JAK2; in assay [1]) was under 50 nM throughout.

On to `O=c1[nH]ncc2nc(-c3ccc(Cl)cc3)nc(Nc3ccc(CN4CCNCC4)cc3)c12` [Example 40, 2-(4-chlorophenyl)-4-(4-(piperazin-1-ylmethyl)phenylamino)pyrimido[4,5-d]pyridazin-5(6H)-one hydrochloride], for which the IC50 on JAK2 is over 100 nM; in assay [1], under 50 nM.

With `O=c1[nH]ncc2nc(N3CCCCCC3)nc(Nc3ccc(CO)cc3)c12` [Example 331, 2-(azepan-1-yl)-4-((4-(hydroxymethyl)phenyl)amino)pyrimido[4,5-d]pyridazin-5(6H)-one], the IC50 on JAK2 was over 100 nM; in assay [1], under 50 nM.

As for `O=C(O)C1CC12CCN(c1ccc(Nc3nc(C4CCCCCC4)nc4cn[nH]c(=O)c34)cc1)CC2` (stereo not drawn) [Example 81, 6-(4-((2-cycloheptyl-5-oxo-5,6-dihydropyrimido[4,5-d]pyridazin-4-yl)amino)phenyl)-6-azaspiro[2.5]octane-1-carboxylic acid], the IC50 is under 10 nM at JAK2 and under 50 nM in assay [1].

As for `CCN1CCN(C(=O)COc2ccc(Nc3nc(N4CCCCCC4)nc4cn[nH]c(=O)c34)cc2)CC1` [Example 269, 2-(azepan-1-yl)-4-((4-(2-(4-ethylpiperazin-1-yl)-2-oxoethoxy)phenyl)amino)pyrimido[4,5-d]pyridazin-5(6H)-one], the IC50 (on JAK2; in assay [1]) was under 50 nM throughout.

In the case of `O=C(O)c1ccc(-c2nc(Nc3ccc(CN4CCNCC4)cc3)c3c(=O)[nH]ncc3n2)cc1` [Example 27, 4-(5-oxo-4-(4-(piperazin-1-ylmethyl)phenylamino)-5,6-dihydropyrimido[4,5-d]pyridazin-2-yl)benzoic acid hydrochloride], the IC50 (at JAK2; in assay [1]) was over 100 nM throughout.

On to `CC(C)(O)C(=O)N1CCN(Cc2ccc(Nc3nc(-c4ccccc4)nc4cn[nH]c(=O)c34)cc2)CC1` [Example 83, 4-((4-((4-(2-hydroxy-2-methylpropanoyl)piperazin-1-yl)methyl)phenyl)amino)-2-phenylpyrimido[4,5-d]pyridazin-5(6H)-one], for which the IC50 (at JAK2; in assay [1]) was under 50 nM in each case.

For `CC1CCN(c2nc(Nc3ccc(OCCN4CCNCC4)cc3)c3c(=O)[nH]ncc3n2)CC1` [Example 156, 2-(4-methylpiperidin-1-yl)-4-((4-(2-(piperazin-1-yl)ethoxy)phenyl)amino) pyrimido[4,5-d]pyridazin-5(6H)-one hydrochloride], the values for the IC50 (at JAK2; in assay [1]) were under 100 nM and under 50 nM, respectively.

On to `N#CCC1CCN(c2nc(Nc3ccc(N4CCC(Cc5nn[nH]n5)CC4)cc3)c3c(=O)[nH]ncc3n2)CC1` [Example 246, 2-(1-(4-((4-(4-((2H-tetrazol-5-yl)methyl)piperidin-1-yl)phenyl)amino)-5-oxo-5,6-dihydropyrimido[4,5-d]pyridazin-2-yl)piperidin-4-yl)acetonitrile], for which the IC50 (on JAK2; in assay [1]) was under 10 nM each time.

In the case of `O=c1[nH]ncc2nc(N3CCCCCC3)nc(Nc3ccc(N4CCC(Cc5nn[nH]n5)CC4)nc3)c12` [Example 252, 4-((6-(4-((2H-tetrazol-5-yl)methyl)piperidin-1-yl)pyridin-3-yl)amino)-2-(azepan-1-yl)pyrimido[4,5-d]pyridazin-5(6H)-one], the IC50 at JAK2 was under 10 nM; in assay [1] it was under 50 nM.

In the case of `O=c1[nH]ncc2nc(N3CCNCC3)nc(Nc3ccc(CN4CCNCC4)cc3)c12` [Example 32, 2-(piperazin-1-yl)-4-(4-(piperazin-1-ylmethyl)phenylamino)pyrimido[4,5-d]pyridazin-5(6H)-one dihydrochloride], the IC50 was over 100 nM at JAK2 and under 100 nM in assay [1].

For the molecule `O=C(O)Cn1nnc(-c2ccc(Nc3nc(N4CCCCCC4)nc4cn[nH]c(=O)c34)cc2)n1` [Example 235, 2-(5-(4-((2-(azepan-1-yl)-5-oxo-5,6-dihydropyrimido[4,5-d]pyridazin-4-yl)amino)phenyl)-2H-tetrazol-2-yl)acetic acid], the half-maximal inhibitory concentration (IC50) (on JAK2; in assay [1]) was under 50 nM each time.

As to `CC(C)(C(=O)O)N1CCN(c2ccc(Nc3nc(N4CCCCCC4)nc4cn[nH]c(=O)c34)cc2)CC1` [Example 140, 2-(4-(4-((2-(azepan-1-yl)-5-oxo-5,6-dihydropyrimido[4,5-d]pyridazin-4-yl)amino)phenyl)piperazin-1-yl)-2-methylpropanoic acid], the IC50 (on JAK2; in assay [1]) was under 10 nM throughout.

For `CCN(CC)CCOc1ccc(Nc2nc(N3CCC(CC#N)CC3)nc3cn[nH]c(=O)c23)cc1` [Example 224, 2-(1-(4-((4-(2-(diethylamino)ethoxy)phenyl)amino)-5-oxo-5,6-dihydropyrimido[4,5-d]pyridazin-2-yl)piperidin-4-yl)acetonitrile], the IC50 (at JAK2; in assay [1]) was under 50 nM throughout.

Take `N#CCN1CCN(c2ccc(Nc3nc(N4CCCCCC4)nc4cn[nH]c(=O)c34)cc2)CC1` [Example 206, 2-(4-(4-((2-(azepan-1-yl)-5-oxo-5,6-dihydropyrimido[4,5-d]pyridazin-4-yl)amino)phenyl)piperazin-1-yl) acetonitrile]: the IC50 at JAK2 is under 10 nM; in assay [1] it was under 50 nM.

In the case of `O=c1[nH]ncc2nc(N3CCCCCC3)nc(Nc3ccc(N4CCCN(CCO)CC4)cc3)c12` [Example 263, 2-(azepan-1-yl)-4-((4-(4-(2-hydroxyethyl)-1,4-diazepan-1-yl)phenyl)amino) pyrimido[4,5-d]pyridazin-5(6H)-one], the IC50 (on JAK2; in assay [1]) was under 10 nM each time.

Regarding `O=C1CN(c2ccc(Nc3nc(N4CCCCCC4)nc4cn[nH]c(=O)c34)cc2)CCN1` [Example 165, 2-(azepan-1-yl)-4-((4-(3-oxopiperazin-1-yl)phenyl)amino)pyrimido[4,5-d]pyridazin-5(6H)-one], the IC50 at JAK2 was under 10 nM; in assay [1], under 100 nM.

On to `N#CCN1CCN(c2nc(Nc3ccc(N4CCC(CC(=O)O)CC4)cc3)c3c(=O)[nH]ncc3n2)CC1` [Example 70, 2-(1-(4-((2-(4-(cyanomethyl)piperazin-1-yl)-5-oxo-5,6-dihydropyrimido[4,5-d]pyridazin-4-yl)amino)phenyl)piperidin-4-yl)acetic acid], for which the IC50 is over 100 nM on JAK2 and under 100 nM in assay [1].

Consider `N#CCC1CCN(c2nc(Nc3ccc(N4CCCC(O)C4)cc3)c3c(=O)[nH]ncc3n2)CC1` (stereo not drawn) [Example 282, 2-(1-(4-((4-(3-hydroxypiperidin-1-yl)phenyl)amino)-5-oxo-5,6-dihydropyrimido[4,5-d]pyridazin-2-yl)piperidin-4-yl)acetonitrile], for which the IC50 is under 10 nM at JAK2 and under 50 nM in assay [1].

For `N#CCC1CCN(c2nc(Nc3ccc4[nH]nnc4c3)c3c(=O)[nH]ncc3n2)CC1` [Example 335, 2-(1-(4-((1H-benzo[d][1,2,3]triazol-5-yl)amino)-5-oxo-5,6-dihydropyrimido[4,5-d]pyridazin-2-yl)piperidin-4-yl) acetonitrile], the IC50 (on JAK2; in assay [1]) was under 50 nM throughout.
